Experimental data taken from patent US20230398130A1, “METHODS AND COMPOSITIONS FOR DIFFERENTIATING STEM CELLS” (Massachusetts Institute of Technology, priority 2020, published 2023).
Entries after “also recorded” stand apart in the source; their conditions may differ.

Key:
Paneth cells = experiment: In vivo oral gavage of KPT-330 every other day for two weeks: histological counting of Paneth, Olfm4+ stem and PAS+ goblet cells in small intestine; design: species or system C57BL/6 wild-type mice
Description: Applicants tracked animal weight every other day, and at day 14 collected the proximal and distal thirds of the small intestine for histological quantification of Paneth, stem, and goblet populations (FIG. 26A). […] Samples were prepared for histology by the 'swiss-roll' technique, and following staining, were blinded and randomized before manual counting of well-preserved features. […] Animal study. 8-10 weeks old wild type C57BL/6NCrl male mice (#027) were purchased from Charles River. […] All animal studies are approved by the Committee on Animal Care (CAC) at Massachusetts Institute of Technology. Histology. The small intestine (SI) was collected from mice and divided into three parts. Only proximal and distal SI were kept in PBS, and medial SI was discarded. Each SI was opened longitudinally and washed in PBS. […] Fixed tissues were embedded in paraffin, and […] sections were mounted on slides. […] For McManus Periodic Acid Schiff (PAS) reaction, slides were deparaffinized, oxidized in periodic acid, and stained with Schiff reagent (Poly Scientific, s272) followed by counterstaining with Harris Hematoxylin. Slides were scanned by Aperio Slide Scanner (Leica) and cells were counted on Aperio eSlide Manager. Slides were randomized before counting, and all cell types were counted in all well-preserved crypts along the longitudinal crypt-villus axis. […] Because Paneth cell number and quality is known to physiologically change along the length of the small intestine, and diseases associated with Paneth cells most frequently present distally^56, Applicants sought to profile how XPO1 inhibition may differentially affect proximal and distal small intestine. Applicants tracked animal weight every other day and collected the proximal and distal thirds of the small intestine at day 14 for histological quantification of Paneth, stem, and goblet populations (FIG. 61A). […] Paneth cells were counted within well-preserved crypts-with at least 30 crypts quantified per animal (representative images FIG. 62C) and the counts were averaged. […] Animal study. 8-10 weeks old wild type C57BL/6NCrl male mice (#027) were purchased from Charles River. […] All animal studies are approved by the Committee on Animal Care (CAC) at Massachusetts Institute of Technology. Histology. The small intestine (SI) was collected from mice and divided into three parts. Only proximal and distal SI were kept in PBS, and medial SI was discarded. Each SI was opened longitudinally and washed in PBS. […] Fixed tissues were embedded in paraffin, and […] sections were mounted on slides. […] For McManus Periodic Acid Schiff (PAS) reaction, slides were deparaffinized, oxidized in periodic acid, and stained with Schiff reagent (Poly Scientific, s272) followed by counterstaining with Harris Hematoxylin. Slides were scanned by Aperio Slide Scanner (Leica) and cells were counted on Aperio eSlide Manager. Slides were blinded and randomized before counting, and all cell types were counted in all well-preserved crypts along the longitudinal crypt-villus axis (Paneth cell: >30 crypts, Olfm4+ cell: ≥17 crypts, Goblet cell: >15 villi, per sample). For the Goblet cell images, the samples that include less than 15 well-preserved crypt-villus axes were excluded, which was predetermined.

[1] = system: human small intestinal organoids; experiment: Immunofluorescent imaging for LYZ, human small intestinal organoids; assay type: cell-based; conditions: 160 nM KPT-330, 6 days
Description: To extend the observations from the murine organoid system, Applicants sought to examine how XPO1 inhibition via KPT-330 may effect human small intestinal stem cells by utilizing a stem-cell enriched human small intestinal organoid model^46 (see Methods).
Immunofluorescent imaging. For immunofluorescence staining of organoids, intestinal organoids in Matrigel were fixed with 4% paraformaldehyde, then transferred to centrifuge tube. After washing with PBS, the isolated organoids were permeabilized with 1% Triton X followed by incubation with blocking buffer (1% BSA+3% Donkey Serum+0.2% Triton X in PBS) at RT. The organoids were then stained with primary antibodies and fluorescent dye-labeled secondary antibodies as well as with DAPI. Slides were covered with […] ® Mounting Media (VECTOR). […] Images were acquired with a confocal laser scanning microscope (Nikon Eclipse 90i). For the analysis of Lysozyme+ cells per organoid area, the number of counted Lysozyme+ cells were normalized to measured organoid surface area. Image J was used for the data analysis.

[2] = system: ENR+CD differentiating organoids; experiment: Longitudinal single-cell RNA-seq (Seq-Well) of organoid differentiation, ENR+CD with or without 160 nM KPT-330; assay type: cell-based, murine
Description: For time points beyond 2 days, media was refreshed every other day. Following the Seq-Well protocol Applicants followed a standard library preparation, sequencing, and alignment process (see Methods). […] Single-cell RNA-sequencing. A single-cell suspension was obtained from organoids cultured under conditions for the differentiation time course as described above. Applicants utilized the Seq-Well platform for massively parallel scRNA-seq to capture transcriptomes of single cells on barcoded mRNA capture beads. […] In brief, 20,000 cells from one organoid condition were loaded onto one array containing 100,000 barcoded mRNA capture beads. The loaded arrays containing cells and beads were then sealed using a polycarbonate membrane with a pore size of […], which allows for exchange of buffers but retains biological molecules confined within each microwell. Subsequent exchange of buffers allows for cell lysis, transcript hybridization, and bead recovery before performing reverse transcription en masse. Following reverse transcription and exonuclease treatment to remove excess primers, PCR amplification was carried out using KAPA HiFi PCR Mastermix with 2,000 beads per 50 μL reaction volume. Libraries were then pooled and purified using Agencourt AMPure XP beads (Beckman Coulter, A63881) by a 0.6×SPRI followed by a 0.8×SPRI and quantified using Qubit […] (Thermo Fisher). Libraries were constructed using the Nextera Tagmentation method on a total of 800 pg of pooled cDNA library per sample. […] Arrays were sequenced with an Illumina NovaSeq System. The read structure was paired end with Read 1 starting from a custom read 1 primer containing 20 bases with a 12 bp cell barcode and 8 bp unique molecular identifier (UMI) and Read 2 being 50 bases containing transcript information. Single-cell RNA-sequencing computational pipelines and analysis. […] Briefly, for each sequencing run, raw sequencing data was converted to demultiplexed FASTQ files using bcl2fastq2 based on Nextera N700 indices corresponding to individual samples/arrays. […] Individual reads were tagged according to the 12-bp barcode sequencing and the 8-bp UMI contained in Read 1 of each fragment. Following alignment, reads were binned onto 12-bp cell barcodes and collapsed by their 8-bp UMI. Digital gene expression matrices (e.g. cell by gene tables) for each sample were obtained from quality filtered and mapped reads and UMI-collapsed data, are deposited in GSE100274, and were utilized as input into Seurat v3 for further analysis. […] Applicants collected 17 samples at the following timepoints: 6 hours (0.25 days), and 1, 2, 3, 4, or 6 days. […] For time points beyond 2 days, media was refreshed every other day. […] Murine and human single-cell RNA-sequencing and alignment. […] Excess Matrigel was removed per previously described washing protocol, and organoids were resuspended in TrypLE at 37 C for 15 min, with vigorous homogenization through a p200 pipette tip every 5 min. After 15 min, the suspension was passed through a 30 uM cell strainer twice, and counted under brightfield microscopy with trypan blue staining for viable single cells. For human organoid scRNA-seq, antibody-based cell hashing was performed, with all samples pooled following labeling and three washes in FACS buffer to remove excess antibody. Each sample was manually counted to equally weight in cell pools, and then the pool was split and processed as four identical samples.

SMILES: O=C(/C=C\n1cnc(-c2cc(C(F)(F)F)cc(C(F)(F)F)c2)n1)NNc1cnccn1 [KPT-330]
- Olfm4+ stem cells per crypt (Paneth cells; 0.01 mg/kg, distal SI, day 14): significant increase in Olfm4+ stem cells
- fraction of crypts with more Paneth cells than the vehicle 90th percentile cutoff (5 per crypt) (Paneth cells; 0.01 mg/kg, distal small intestine): 27.9%
- Paneth cell abundance per crypt (Paneth cells; 0.01 mg/kg, distal small intestine, day 14): significant increases in Paneth cell abundance
- Paneth cell abundance per crypt (Paneth cells; 0.01 mg/kg, proximal small intestine, day 14): significant increases in Paneth cell abundance
- fraction of crypts with more Paneth cells than the vehicle 90th percentile cutoff (4 per crypt) (Paneth cells; 0.2 mg/kg, proximal small intestine): 15.5%
- Paneth cell abundance per crypt (Paneth cells; 0.2 mg/kg, proximal small intestine, day 14): significant increases in Paneth cell abundance
- PAS+ goblet cell population (Paneth cells; 0.01-0.2 mg/kg, proximal and distal SI, day 14): did not overserve any significant changes; also recorded: did not identify any significant changes
- additional Paneth cells per crypt in vivo (Paneth cells; low dose KPT-330): 0.5-1 Paneth cells per crypt
- LYZ+ cell abundance (IF imaging) [1]: increased LYZ+ cell abundance
- organoid cell type composition over differentiation time course ([2]; 160 nM KPT-330 vs control, day 0.25-6): enhances stem conversion to mature cells; also recorded: relative depletion of stem I (and stem II & III) and enteroendocrine cells over time along with the corresponding enrichment of enterocytes and Paneth cells
- inferred signaling pathway activity (PROGENy), effect of KPT-330 ([2]; Cohen's d per pathway and cell type): pan-epithelial increase in stress-associated Trail signaling
- inferred upstream TF activity clusters (DoRothEA), effect of KPT-330 ([2]; Fisher's exact test per cell type): depletion of cell cycle cluster 0 and enrichment in stress response cluster 6
- active and quiescent ISC signature ([2]; early stem cell populations, KPT-330 vs control): induces a quiescent ISC signature and reduces an active ISC signature; also recorded: transition into quiescence
- differentially expressed genes, KPT-330 treated vs untreated ([2]; stem II/III populations, day 0.25-2): most significantly enriched (Xpo1) and depleted (Kpnb1
- gene set enrichment analysis (MSigDB hallmark v7) ([2]; stem II/III populations, day 0.25-2, FDR<0.05): suppresses programs downstream of mitogen-driven signaling
